Experimental data from patent US7232912B2, “Indazole compounds, pharmaceutical compositions, and methods for mediating or inhibiting cell proliferation” (Agouron Pharmaceuticals, Inc., priority 2000, dated 2007).
Read-outs that look alike come from different tables or passages of the source.

Tests used:
CDK2/cyclin A = target: T1, CDK2/cyclin A (Homo sapiens, UniProt P24941); test: Inhibition of CDK2/Cyclin A Retinoblastoma Kinase Activity; assay type: biochemical; conditions: apparent Ki
T1 construct: made in house; host or cells: CDK2: insect cells (baculovirus); cyclin A: E. coli
Experimental: (§1) Cyclin-dependent kinase activity was measured by quantifying the enzyme-catalyzed, time-dependent incorporation of radioactive phosphate from [^32P]ATP or [^33P]ATP into a protein substrate. Unless noted otherwise, assays were performed in 96-well plates in a total volume of 50 μL, in the presence of 10 mM HEPES (N-[2-hydroxyethyl]piperazine-N′-[2-ethanesulfonic acid]) (pH 7.4), 10 mM MgCl2, 25 μM adenosine triphosphate (ATP), 1 mg/mL ovalbumin, 5 μg/mL leupeptin, 1 mM dithiothreitol, 10 mM beta-glycerophosphate, 0.1 mM sodium vanadate, 1 mM sodium fluoride, 2.5 mM ethylene glycol-bis(β-aminoethyl ethKer)-N,N,N′N′-tetraacetic acid (EGTA), 2% (v/v) dimethylsulfoxide, and 0.03–0.4 μCi [^32/33P]ATP per reaction. Reactions were initiated with appropriate enzyme, incubated at 30° C., and terminated after 20 minutes by the addition of ethylenediaminetetraacetic acid (EDTA) to 250 mM. The phosphorylated substrate was then captured on a nitrocellulose or phosphocellulose membrane using a 96-well filtration manifold, and unincorporated radioactivity was removed by repeated washing with 0.85% phosphoric acid. Radioactivity was quantified by exposing the dried membranes to a phosphorimager.
(§2) Apparent Ki values were measured by assaying enzyme activity in the presence of different inhibitor compound concentrations and subtracting the background radioactivity measured in the absence of enzyme. Inhibition data were fit to an equation for competitive inhibition using Kaleidagraph (Synergy Software), or were fit to an equation for competitive tight-binding inhibition using the software KineTic (BioKin, Ltd.).
Inhibition of CDK2/Cyclin A Retinoblastoma Kinase Activity
CDK2 was purified using published methodology (Rosenblatt et al., “Purification and Crystallization of Human Cyclin-dependent Kinase 2,” J. Mol. Biol., vol. 230, 1993, pp. 1317–1319) from insect cells that had been infected with a baculovirus expression vector. […] A complex of CDK2 and proteolyzed cyclin A was prepared and purified by gel filtration. The substrate for this assay was the same Rb substrate fragment used for the CDK4 assays, and the methodology of the CDK2/cyclin A and the CDK4/cyclin D3 assays was essentially the same, except that CDK2 was present at 150 nM or 5 nM. Ki values were measured as described above.

CDK4/cyclin D3 = CDK4/cyclin D3 (Homo sapiens, UniProt P11802); test: Inhibition of CDK4/Cyclin D Retinoblastoma Kinase Activity; assay type: biochemical; conditions: apparent Ki
Sequence of CDK4/cyclin D3 (P11802 2-303 limits assumed): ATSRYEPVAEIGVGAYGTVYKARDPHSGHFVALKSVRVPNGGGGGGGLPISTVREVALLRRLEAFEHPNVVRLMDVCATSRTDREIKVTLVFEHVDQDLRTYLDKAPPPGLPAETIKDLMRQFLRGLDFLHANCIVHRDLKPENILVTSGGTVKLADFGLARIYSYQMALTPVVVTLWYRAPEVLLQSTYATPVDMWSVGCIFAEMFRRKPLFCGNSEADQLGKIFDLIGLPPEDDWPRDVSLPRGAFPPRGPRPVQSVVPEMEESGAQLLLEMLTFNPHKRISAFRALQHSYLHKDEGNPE
Sequence of CDK4/cyclin D3 (P30281 1-264 limits assumed, further chain): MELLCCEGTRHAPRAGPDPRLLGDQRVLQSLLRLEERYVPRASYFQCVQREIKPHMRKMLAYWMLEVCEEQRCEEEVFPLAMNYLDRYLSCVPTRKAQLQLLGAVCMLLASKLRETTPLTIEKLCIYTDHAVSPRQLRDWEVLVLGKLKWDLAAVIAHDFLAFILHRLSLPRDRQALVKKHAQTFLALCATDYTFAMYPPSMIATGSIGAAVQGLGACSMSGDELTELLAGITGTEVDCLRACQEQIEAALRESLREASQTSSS
Experimental: as §1, §2
Inhibition of CDK4/Cyclin D Retinoblastoma Kinase Activity
A complex of human CDK4 and cyclin D3, or a complex of human CDK4 and genetically truncated (1–264) cyclin D3, was purified using traditional biochemical chromatographic techniques from insect cells that had been co-infected with the corresponding baculovirus expression vectors (see e.g., Meijer and Kim, “Chemical Inhibitors of Cyclin-Dependent Kinases,” Methods in Enzymol,. vol. 283 (1997), pp. 113–128.). The enzyme complex (5 or 50 nM) was assayed with 0.3–0.5 μg of purified recombinant retinoblastoma protein fragment (Rb) as a substrate. The engineered Rb fragment (residues 386–928 of the native retinoblastoma protein; 62.3 kDa) contains the majority of the phosphorylation sites found in the native 106-kDa protein, as well as a tag of six histidine residues for ease of purification. Phosphorylated Rb substrate was captured by microfiltration on a nitrocellulose membrane and quantified using a phosphorimager as described above. For measurement of tight-binding inhibitors, the enzyme complex concentration was lowered to 5 nM, and the assay duration was extended to 60 minutes, during which the time-dependence of product formation was linear.

HCT 116 cell line = test: Inhibition of Cell Growth (MTT tetrazolium salt assay); assay type: cell-based; conditions: Homo sapiens
Experimental: Inhibition of Cell Growth: Assessment of Cytotoxicity
Inhibition of cell growth was measured using the tetrazolium salt assay, which is based on the ability of viable cells to reduce 3-(4,5-dimethylthiazol-2-yl)-2,5-[2H]-diphenyltetrazolium bromide (MTT) to formazan (Mossman, Journal of Immunological Methods, vol. 65 (1983), pp. 55–58). The water-insoluble purple formazan product was then detected spectrophotometrically. The HCT 116 cell line was grown in 96-well plates. Cells were plated in the appropriate medium at a volume of 135 μl/well in McCoy's 5A Medium. Plates were incubated for four hours before addition of inhibitor compounds. Different concentrations of inhibitor compounds were added in 0.5% (v/v) dimethylsulfoxide (15 μL/well), and cells were incubated at 37° C. (5% CO2) for four to six days (depending on cell type). At the end of the incubation, MTT was added to a final concentration of 0.2 mg/mL, and cells were incubated for 4 hours more at 37° C. After centrifugation of the plates and removal of medium, the absorbance of the formazan (solubilized in dimethylsulfoxide) was measured at 540 nm. The concentration of inhibitor compound causing 50% inhibition of growth was determined from the linear portion of a semi-log plot of inhibitor concentration versus percentage inhibition. All results were compared to control cells treated only with 0.5% (v/v) dimethylsulfoxide.

FGFR1 tyrosine kinase = target: T2, FGFR1 tyrosine kinase (Homo sapiens, UniProt P11362, C488A/C584S/L457V); test: Inhibition of phosphorylated FGF receptor tyrosine kinase activity; assay type: biochemical; conditions: read-out: FGF % Inhib. at 1 μM
T2 construct: the cytosolic domain of FGFR1 tyrosine kinase (amino acids 456–766); made in house; host or cells: Sf9 insect cells (baculovirus)
T2 sequence (P11362 456-766 L457V/C488A/C584S): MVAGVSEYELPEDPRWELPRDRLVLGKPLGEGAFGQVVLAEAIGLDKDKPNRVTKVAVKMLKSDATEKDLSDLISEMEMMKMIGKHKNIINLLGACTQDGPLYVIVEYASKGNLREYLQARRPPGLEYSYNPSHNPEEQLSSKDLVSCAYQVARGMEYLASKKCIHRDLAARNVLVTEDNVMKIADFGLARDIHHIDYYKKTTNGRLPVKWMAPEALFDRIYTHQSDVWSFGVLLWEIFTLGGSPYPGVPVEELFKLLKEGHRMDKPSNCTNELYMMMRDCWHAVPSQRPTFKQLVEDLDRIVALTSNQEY
Experimental: Inhibition of Phosphorylated FGF Receptor and LCK Tyrosine Kinase Activity
Cloning, expression and purification of the cytosolic domain of FGFR1 tyrosine kinase (amino acids 456–766) containing three amino acid substitutions (L457V, C488A, and C584S) were conducted as previously described (Mohammadi, M., Schlessinger, J., & Hubbard, S. R. (1996) Cell 86, 577–587). This domain was expressed in Sf9 insect cells using a baculovirus expression vector, and protein was purified using conventional techniques. The LCK tyrosine kinase was expressed in insect cells as an N-terminal deletion starting from amino acid 223 to the end of the protein at amino acid 509. The N-terminus of the protein also had two amino acid substitutions, P223M and C 224D. Kinases were purified using conventional chromatographic methods.
Tyrosine kinase activity was measured using a coupled, continuous spectrophotometric assay, in which production of phosphorylated poly(Glu, Tyr; 4:1) substrate and ADP is coupled to the pyruvate kinase-catalyzed transfer of a phosphate from phosphoenolpyruvate to ADP, with generation of pyruvate and regeneration of ATP. Pyruvate production is in turn coupled to the lactate dehydrogenase-catalyzed reduction of pyruvate to form lactate, with concomitant conversion of NADH to NAD+. Loss of NADH is monitored by measuring absorbance at 340 nm (see e.g., Technikova-Dobrova et al., “Spectrophotometric determination of functional characteristics of protein kinases with coupled enzymatic assay,” FEBS Letters, vol. 292 (1991), pp. 69–72). Enzyme activity was measured in the presence of 200 mM HEPES (pH 7.5), 2 mM phosphoenolpyruvate, 0.3 mM NADH, 20 mM MgCl2, 100 μM ATP, 5 mM DTT, 5.1 or 25 mM poly (Glu,Tyr) 4:1 for P-FGF or P-LCK assays, respectively, and 15 units/mL each of pyruvate kinase and lactate dehydrogenase. Phosphorylated FGF receptor kinase was present at 100 nM and phosphorylated LCK kinase was present at 50 nM. Assays were performed under initial rate conditions at 37° C., and rates were corrected for any background rate measured in the absence of enzyme. Percent inhibition was calculated relative to control enzyme assayed in the presence of 2% (v/v) DMSO.

[1] = HCT 116, MTT, 50% inhibition of growth, read-out: HCT 116 IC50
[2] = HCT 116, MTT, IC90, read-out: HCT 116 IC90
[3] = HCT-116, read-out: HCT 116 IC50 (uM)
[4] = HCT-116, read-out: HCT 116 IC90 (uM)

SMILES | Ki (CDK2/cyclin A) | Ki (CDK4/cyclin D3) | IC50 (HCT 116 cell line; [1]) | IC90 (HCT 116 cell line; [2]) | inhibition at 1 µM (FGFR1 tyrosine kinase) | IC50 (HCT 116 cell line; [3]) | IC90 (HCT 116 cell line; [4])
C(=C\c1n[nH]c2ccc(-c3ccnc4ccccc34)cc12)/c1ccccc1 [Example 17, 4-[3-((E)-Styryl)-1H-indazol-5-yl]-quinoline] | 1400 nM |  | 3.2 µM | 5 µM | 42.6% |  | 
Cc1c(-c2ccc3[nH]nc(-c4nc5ccccc5[nH]4)c3c2)cncc1-c1ccccn1 [Example 62] | 3.7 nM | 50 nM | 1 µM | 2.4 µM |  |  | 
CC(=O)N1CCCc2c(-c3ccc4[nH]nc(-c5nc6ccccc6[nH]5)c4c3)cncc21 [Example 63, 1-{5-[3-(1H-Benzoimidazol-2yl)-1H-indazol-5-yl]-3,4-dihydro-2H-[1,7]naphthyridin-1-yl}-ethanone] | 1.2 nM | 220 nM | 0.43 µM | 1.3 µM |  |  | 
CC(C)(C)NCc1cccc2[nH]c(-c3n[nH]c4ccc(-c5cncc6ccccc56)cc34)nc12 [Example 39, tert-Butyl-[2-(5-isoquinolin-4-yl-1H-indazol-3-yl)-1H-benzoimidazol-4-ylmethyl]-amine] | 1.1 nM | 9 nM | 0.018 µM | 0.06 µM |  |  | 
Cc1c(CNC(C)C)cncc1-c1ccc2[nH]nc(-c3nc4ccccc4[nH]3)c2c1 [Example 78, {5-[3-(1H-Benzoimidazol-2-yl)-1H-indazol-5-yl]-4-methyl-pyridin-3-ylmethyl}-isopropyl-amine] | 0.7 nM | 5.5 nM |  |  |  | 0.085 µM | 0.22 µM
c1ccc(CNc2cccc3c(-c4ccc5[nH]nc(-c6nc7ccccc7[nH]6)c5c4)cncc23)cc1 [Example 57] | 37 nM | 650 nM |  |  |  | 2 µM | 5 µM
Cc1c(CNCCO)cncc1-c1ccc2[nH]nc(-c3nc4ccccc4[nH]3)c2c1 [Example 89, 2-({5-[3-(1H-Benzoimidazol-2-yl)-1H-indazol-5-yl]-4-methyl-pyridin-3-ylmethyl}-amino)-ethanol] | 0.94 nM | 1 nM | 0.15 µM | 0.25 µM |  |  | 
CNC(C)c1cccc2[nH]c(-c3n[nH]c4ccc(-c5cncc6ccccc56)cc34)nc12 (stereo not drawn) [Example 90, {1-[2-(5-Isoquinolin-4-yl-1H-indazol-3-yl)-1H-benzoimidazol-4-yl]-ethyl}-methyl-amine] | 0.3 nM | 0.09 nM | 0.03 µM | 0.12 µM |  |  | 
Cc1c(CNc2cccnc2)cncc1-c1ccc2[nH]nc(-c3nc4ccccc4[nH]3)c2c1 [Example 93, {5-[3-(1H-Benzoimidazol-2-yl)-1H-indazol-5-yl]-4-methyl-pyridin-3-ylmethyl}-pyridin-3-yl-amine] | 0.61 nM | 1.9 nM | 0.32 µM | > 0.5 µM |  |  | 

Continued, in another order:

Ki (CDK2/cyclin A) | Ki (CDK4/cyclin D3) | IC50 (HCT 116 cell line; [1]) | IC90 (HCT 116 cell line; [2]) | inhibition at 1 µM (FGFR1 tyrosine kinase) | SMILES | IC50 (HCT 116 cell line; [3]) | IC90 (HCT 116 cell line; [4])
27 nM | 150 nM | 0.5 µM | 0.5 µM |  | Cc1c(-c2ccc3[nH]nc(-c4nc5ccccc5[nH]4)c3c2)cnc2ccccc12 [Example 76, 3-[3-(1H-Benzoimidazol-2-yl)-1H-indazol-5-yl]-4-methyl-quinoline] |  | 
1 nM | 36 nM | 0.48 µM | 1.3 µM |  | CC(=O)Nc1cccc2c(-c3ccc4[nH]nc(-c5nc6ccccc6[nH]5)c4c3)cncc12 [Example 56, N-{4-[3-(1H-Benzoimidazol-2-yl)1H-indazol-5-yl]-isoquinolin-8-yl}-acetamide] |  | 
0.38 nM | 5.8 nM | 0.31 µM | 0.5 µM |  | Cc1c(O)cncc1-c1ccc2[nH]nc(-c3nc4ccccc4[nH]3)c2c1 [Example 77, 5-[3-(1H-Benzoimidazol-2-yl)-1H-indazol-5-yl]-4-methyl-pyridin-3-ol] |  | 
2.8 nM | 7.5 nM | 0.34 µM | > 0.5 µM |  | Cc1c(CN2CCOCC2)cncc1-c1ccc2[nH]nc(-c3nc4ccccc4[nH]3)c2c1 [Example 91, 3-(1H-Benzoimidazol-2-yl)-5-(4-methyl-5-morpholin-4-ylmethyl-pyridin-3-yl)-1H-indazole] |  | 
0.42 nM | 2.2 nM | 0.5 µM | 0.5 µM |  | C(=N\n1cccc1)/c1n[nH]c2ccc(-c3cncc4ccccc34)cc12 [Example 79, (5-Isoquinolin-4-yl-1H-indazol-3-ylmethylene)-pyrrol-1-yl-amine] |  | 
4.9 nM | 0.8 nM |  | 0.21 µM |  | CCNCc1cncc(-c2ccc3[nH]nc(-c4nc5c(SC)cccc5[nH]4)c3c2)c1C [Example 81, Ethyl-4-{methyl-5-[3-(4-methylsulfanyl-1H-benzoimidazol-2-yl)-1H-indazol-5-yl]-pyridin-3-ylmethyl}-amine] |  | 
14 nM | 190 nM | 1.3 µM | 5 µM |  | Cc1c(C(N)=O)cncc1-c1ccc2[nH]nc(-c3nc4ccccc4[nH]3)c2c1 [Example 64, 5-[3-(1H-Benzoimidazol-2-yl)-1H-indazol-5-yl]-4-methyl-nicotinamide] |  | 
